Legend:
[1] = molecular target: Ribosomal protein S6 kinase beta-1 (Homo sapiens) (UniProt P23443); assay: Inhibition of recombinant P70S6K at 20 uM by [gamma-33P]ATP based assay
[2] = molecular target: T1, Hepatocyte growth factor receptor (Homo sapiens, UniProt P08581); assay: Inhibition of recombinant MET by [gamma-33P]ATP based assay
[3] = molecular target: Rho-associated protein kinase 2 (Homo sapiens) (UniProt O75116); assay: Inhibition of recombinant ROCK2 at 20 uM by [gamma-33P]ATP based assay
[4] = molecular target: Tyrosine-protein kinase ABL1 (Homo sapiens) (UniProt P00519); assay: Inhibition of recombinant ABL1 at 20 uM by [gamma-33P]ATP based assay
[5] = molecular target: T2, Serine/threonine-protein kinase Chk2 (Homo sapiens, UniProt O96017); assay: Inhibition of recombinant CHK2 at 20 uM by [gamma-33P]ATP based assay
[6] = molecular target: T1, Hepatocyte growth factor receptor; assay: Inhibition of recombinant MET at 20 uM by [gamma-33P]ATP based assay
[7] = molecular target: Receptor-type tyrosine-protein kinase FLT3 (Homo sapiens) (UniProt P36888); assay: Inhibition of recombinant FLT3 at 20 uM by [gamma-33P]ATP based assay
[8] = molecular target: T2, Serine/threonine-protein kinase Chk2; assay: Inhibition of recombinant CHK2 by [gamma-33P]ATP based assay

Receptor-type tyrosine-protein kinase FLT3 (Homo sapiens), sequence (P36888 whole entry): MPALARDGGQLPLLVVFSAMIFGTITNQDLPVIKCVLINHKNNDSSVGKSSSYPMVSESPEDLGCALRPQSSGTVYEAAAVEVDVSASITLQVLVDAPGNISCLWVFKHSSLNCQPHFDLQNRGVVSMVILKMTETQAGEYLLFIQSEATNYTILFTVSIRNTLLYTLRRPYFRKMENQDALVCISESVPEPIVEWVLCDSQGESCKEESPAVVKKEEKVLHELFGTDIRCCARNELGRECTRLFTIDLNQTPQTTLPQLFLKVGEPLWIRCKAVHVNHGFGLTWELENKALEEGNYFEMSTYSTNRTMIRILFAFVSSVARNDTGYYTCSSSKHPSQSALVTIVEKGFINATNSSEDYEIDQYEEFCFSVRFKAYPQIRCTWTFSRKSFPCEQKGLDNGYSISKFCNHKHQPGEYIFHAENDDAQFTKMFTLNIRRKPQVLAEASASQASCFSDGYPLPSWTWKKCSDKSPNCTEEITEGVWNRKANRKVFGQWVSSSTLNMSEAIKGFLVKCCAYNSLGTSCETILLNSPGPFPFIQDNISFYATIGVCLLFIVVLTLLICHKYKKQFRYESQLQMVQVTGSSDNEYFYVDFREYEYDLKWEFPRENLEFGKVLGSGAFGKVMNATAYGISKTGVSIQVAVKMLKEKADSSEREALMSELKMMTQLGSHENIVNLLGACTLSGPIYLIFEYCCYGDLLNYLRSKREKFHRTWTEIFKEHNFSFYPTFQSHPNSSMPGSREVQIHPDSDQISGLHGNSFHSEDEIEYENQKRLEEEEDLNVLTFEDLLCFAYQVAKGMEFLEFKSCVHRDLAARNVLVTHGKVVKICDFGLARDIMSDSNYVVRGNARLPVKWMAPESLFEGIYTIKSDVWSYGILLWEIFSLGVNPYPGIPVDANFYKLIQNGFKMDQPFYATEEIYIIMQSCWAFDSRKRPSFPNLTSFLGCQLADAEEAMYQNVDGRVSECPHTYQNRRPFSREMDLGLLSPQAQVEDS
T1 sequence (P08581 whole entry): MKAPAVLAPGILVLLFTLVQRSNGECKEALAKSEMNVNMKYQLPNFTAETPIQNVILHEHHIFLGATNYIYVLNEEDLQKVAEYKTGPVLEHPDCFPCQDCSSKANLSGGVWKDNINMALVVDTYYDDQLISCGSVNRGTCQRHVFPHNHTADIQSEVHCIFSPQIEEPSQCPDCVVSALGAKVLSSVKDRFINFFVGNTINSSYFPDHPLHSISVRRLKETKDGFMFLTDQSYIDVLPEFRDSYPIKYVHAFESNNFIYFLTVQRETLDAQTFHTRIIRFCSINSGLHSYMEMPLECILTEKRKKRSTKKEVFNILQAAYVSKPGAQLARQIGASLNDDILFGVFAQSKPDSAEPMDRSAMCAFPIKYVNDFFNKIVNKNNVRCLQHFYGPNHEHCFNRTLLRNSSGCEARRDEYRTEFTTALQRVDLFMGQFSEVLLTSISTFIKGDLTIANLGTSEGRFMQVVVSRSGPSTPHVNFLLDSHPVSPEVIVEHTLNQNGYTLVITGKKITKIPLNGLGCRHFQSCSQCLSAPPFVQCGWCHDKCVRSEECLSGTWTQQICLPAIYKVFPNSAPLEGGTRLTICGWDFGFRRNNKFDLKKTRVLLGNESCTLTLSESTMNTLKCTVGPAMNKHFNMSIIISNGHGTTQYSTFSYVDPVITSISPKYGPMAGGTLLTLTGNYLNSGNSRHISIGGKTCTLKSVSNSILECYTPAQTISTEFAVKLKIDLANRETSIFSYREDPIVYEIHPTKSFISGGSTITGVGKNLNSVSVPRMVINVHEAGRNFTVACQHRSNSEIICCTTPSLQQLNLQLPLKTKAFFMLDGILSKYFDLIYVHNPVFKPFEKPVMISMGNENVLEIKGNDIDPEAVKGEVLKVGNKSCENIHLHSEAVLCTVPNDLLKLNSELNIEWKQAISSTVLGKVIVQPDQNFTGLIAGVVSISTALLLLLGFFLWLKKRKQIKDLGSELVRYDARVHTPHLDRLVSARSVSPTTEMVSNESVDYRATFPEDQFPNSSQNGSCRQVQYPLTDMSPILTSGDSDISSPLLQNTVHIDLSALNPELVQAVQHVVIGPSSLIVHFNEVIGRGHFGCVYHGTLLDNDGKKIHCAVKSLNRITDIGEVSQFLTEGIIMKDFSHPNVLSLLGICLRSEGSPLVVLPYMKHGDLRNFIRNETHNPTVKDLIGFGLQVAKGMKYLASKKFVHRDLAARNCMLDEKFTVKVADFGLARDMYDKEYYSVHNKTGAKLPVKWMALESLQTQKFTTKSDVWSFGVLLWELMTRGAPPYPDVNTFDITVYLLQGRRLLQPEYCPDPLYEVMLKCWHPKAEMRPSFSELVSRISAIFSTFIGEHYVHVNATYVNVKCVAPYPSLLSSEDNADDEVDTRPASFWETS
Tyrosine-protein kinase ABL1 (Homo sapiens), sequence (P00519 whole entry): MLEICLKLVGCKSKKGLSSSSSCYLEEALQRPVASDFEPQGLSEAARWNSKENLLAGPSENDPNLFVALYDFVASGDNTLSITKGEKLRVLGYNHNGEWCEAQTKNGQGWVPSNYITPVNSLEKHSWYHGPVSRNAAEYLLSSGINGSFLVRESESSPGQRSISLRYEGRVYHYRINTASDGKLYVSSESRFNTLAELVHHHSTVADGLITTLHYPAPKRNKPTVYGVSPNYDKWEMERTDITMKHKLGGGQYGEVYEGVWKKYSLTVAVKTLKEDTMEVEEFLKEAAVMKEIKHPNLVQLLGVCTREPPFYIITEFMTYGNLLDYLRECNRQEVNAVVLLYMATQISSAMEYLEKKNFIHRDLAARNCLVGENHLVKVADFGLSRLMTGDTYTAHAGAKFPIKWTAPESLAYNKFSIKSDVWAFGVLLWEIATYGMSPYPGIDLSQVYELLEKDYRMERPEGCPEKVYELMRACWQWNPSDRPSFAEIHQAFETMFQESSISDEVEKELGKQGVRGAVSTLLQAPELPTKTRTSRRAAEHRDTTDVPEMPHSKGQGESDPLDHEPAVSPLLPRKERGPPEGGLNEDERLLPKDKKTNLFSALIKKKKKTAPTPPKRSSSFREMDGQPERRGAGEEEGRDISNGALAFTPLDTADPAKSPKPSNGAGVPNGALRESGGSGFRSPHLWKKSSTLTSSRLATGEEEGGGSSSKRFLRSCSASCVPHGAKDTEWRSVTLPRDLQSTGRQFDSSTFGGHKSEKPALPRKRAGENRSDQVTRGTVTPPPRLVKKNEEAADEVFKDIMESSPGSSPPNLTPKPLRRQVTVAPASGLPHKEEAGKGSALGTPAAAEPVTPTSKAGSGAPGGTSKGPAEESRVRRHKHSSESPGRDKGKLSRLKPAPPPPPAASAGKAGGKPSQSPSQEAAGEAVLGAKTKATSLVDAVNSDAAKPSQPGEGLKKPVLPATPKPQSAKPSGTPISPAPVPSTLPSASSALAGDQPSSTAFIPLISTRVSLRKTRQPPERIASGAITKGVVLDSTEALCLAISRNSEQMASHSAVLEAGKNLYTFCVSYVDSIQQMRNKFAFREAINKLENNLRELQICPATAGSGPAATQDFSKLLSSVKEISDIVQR
Rho-associated protein kinase 2 (Homo sapiens), sequence (O75116 whole entry, looked up): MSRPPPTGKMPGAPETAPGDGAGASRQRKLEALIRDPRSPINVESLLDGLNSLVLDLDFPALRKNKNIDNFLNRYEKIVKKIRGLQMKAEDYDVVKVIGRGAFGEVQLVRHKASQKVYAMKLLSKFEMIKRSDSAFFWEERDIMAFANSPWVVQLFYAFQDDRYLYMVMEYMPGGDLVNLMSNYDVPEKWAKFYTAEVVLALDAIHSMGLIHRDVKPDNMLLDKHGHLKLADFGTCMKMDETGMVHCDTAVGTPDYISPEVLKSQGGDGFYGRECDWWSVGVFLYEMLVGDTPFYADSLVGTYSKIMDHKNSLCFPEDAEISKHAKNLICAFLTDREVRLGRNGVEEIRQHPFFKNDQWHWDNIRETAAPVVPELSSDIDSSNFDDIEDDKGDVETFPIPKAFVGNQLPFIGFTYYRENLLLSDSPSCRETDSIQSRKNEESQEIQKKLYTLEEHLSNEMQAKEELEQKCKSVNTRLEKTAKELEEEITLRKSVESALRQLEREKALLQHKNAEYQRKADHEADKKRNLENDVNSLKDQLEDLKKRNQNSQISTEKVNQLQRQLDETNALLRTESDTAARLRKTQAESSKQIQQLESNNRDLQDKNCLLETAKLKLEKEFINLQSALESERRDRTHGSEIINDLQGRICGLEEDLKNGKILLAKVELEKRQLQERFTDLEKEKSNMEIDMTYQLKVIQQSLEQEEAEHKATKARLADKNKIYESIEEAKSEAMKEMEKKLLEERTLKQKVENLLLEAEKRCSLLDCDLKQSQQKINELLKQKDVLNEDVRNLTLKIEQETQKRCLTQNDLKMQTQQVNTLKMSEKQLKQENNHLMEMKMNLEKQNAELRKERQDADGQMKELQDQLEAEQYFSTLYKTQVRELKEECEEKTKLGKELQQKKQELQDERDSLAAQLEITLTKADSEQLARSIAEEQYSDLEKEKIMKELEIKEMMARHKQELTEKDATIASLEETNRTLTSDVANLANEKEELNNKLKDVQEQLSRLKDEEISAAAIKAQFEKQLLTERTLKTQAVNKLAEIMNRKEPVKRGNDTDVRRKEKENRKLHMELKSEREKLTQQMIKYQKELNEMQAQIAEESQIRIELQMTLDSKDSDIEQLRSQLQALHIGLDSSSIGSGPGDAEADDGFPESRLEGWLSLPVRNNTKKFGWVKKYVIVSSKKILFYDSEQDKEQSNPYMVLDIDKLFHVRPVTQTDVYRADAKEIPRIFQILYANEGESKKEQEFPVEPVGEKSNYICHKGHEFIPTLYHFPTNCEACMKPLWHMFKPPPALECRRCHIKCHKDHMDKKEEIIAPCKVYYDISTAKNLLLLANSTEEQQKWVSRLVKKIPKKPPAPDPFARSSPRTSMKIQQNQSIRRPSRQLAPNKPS

SMILES | inhibition [1] [%] | IC50 [2] [nM] | inhibition [3] [%] | inhibition [4] [%] | inhibition [5] [%] | inhibition [6] [%] | inhibition [7] [%] | IC50 [8] [nM]
Nc1ncc(-c2ccc(C(=O)NC3CCNCC3)cc2)nc1Oc1ccc2cc[nH]c2c1 | 98 | 5520 | 99 | 85 | 98 | 73 | 102 | 800
Nc1ncc(-c2ccc(C(=O)NCC3CCNCC3)cc2)nc1Oc1ccc2cc[nH]c2c1 | 92 | 3330 | 98 | 94 | 97 | 96 | 94 | 1120
Nc1ncc(-c2ccc(C(=O)NCC3CCCNC3)cc2)nc1Oc1ccc2cc[nH]c2c1 (stereo unspecified) | 101 | 7090 | 98 | 81 | 98 | 65 | 99 | 890
CC(Oc1nc(-c2ccc(C(=O)NCC3CCCNC3)cc2)cnc1N)c1c(Cl)cccc1Cl (stereo unspecified) | 45 | 1210 | 42 | 11 | 60 | 53 | 61 | 1130
Nc1ncc(-c2ccc(C(=O)NCC3CCNC3)cc2)nc1Oc1ccc2cc[nH]c2c1 (stereo unspecified) | 89 | 3550 | 98 | 87 | 98 | 75 | 93 | 580
Nc1ncc(-c2ccc(C(=O)NCC3CCCN3)cc2)nc1Oc1ccc2cc[nH]c2c1 (stereo unspecified) | 86 | 4270 | 97 | 87 | 98 | 77 | 100 | 960
Nc1ncc(-c2ccc(C(=O)N[C@@H]3CCNC3)cc2)nc1Oc1ccc2cc[nH]c2c1 | 100 | 13700 | 37 | 84 | 96 | 65 | 86 | 610

From ChEMBL document CHEMBL1154188, “Kinase inhibitor data modeling and de novo inhibitor design with fragment approaches” (J Med Chem, 2009)
